Patent US20150272939A1, “Identification of Small Molecule Inhibitors of Jumonji AT-Rich Interactive Domain 1A (JARID1A) and 1B (JARID1B) Histone Demethylase” (Yale University, priority 2012, published 2015)
Where “and” joins values, the source holds several entries; their conditions need not be identical. Equal values may be shown once. Read-outs that look alike come from different tables or passages of the source.

Tests used:
[1] = AlphaScreen counterscreen against bio-H3K4me2 peptide in the absence of enzyme (artifact signal); conditions: for Artifact signal: effect of the compound when it is incubated with bio-H3K4me2 peptide: counterscreen, no enzyme; for Artifact Signal (percent): effect of the compound when incubated with bio-H3K4me2 peptide (counterscreen, no enzyme);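 on all read-outs here: counterscreen run without enzyme against bio-H3K4me2 peptide to remove false positive hits from the JARID1 demethylase AlphaScreen screen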
JARID1B = biological target: T1, JARID1B (Homo sapiens, UniProt Q9UGL1); experiment: FLAG-JARID1B histone demethylase assay with AlphaScreen detection (HTS and dose response); type: biochemical; conditions: for Validation result of HTS active: effect of the compound in the JARID1B AlphaScreen demethylase assay / Assay Signal (percent): validation of HTS actives; for Validation result of HTS active: effect of the compound in the JARID1B AlphaScreen demethylase assay: total signal before subtraction of artifact signal; for inhibition at 20 µM: read-out: Inhibitory effect (percent); for Assay − Artifact Signal (percent): assay signal minus artifact signal; for Assay Signal (percent): effect of compound in JARID1B AlphaScreen assay;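 on Assay Signal (percent): compound tested at 20 µM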;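 on Assay − Artifact Signal (percent): compound tested at 20 µM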;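 on all read-outs here: FLAG-tagged JARID1B at 4 nM acting on a biotinylated H3K4me3 peptide, demethylation read by AlphaScreen luminescence, with hits checked against bio-H3K4me2 without enzyme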
T1 construct: The FLAG tagged full length JARID1B enzyme was expressed in Sf21 insect cells using FLAG-JARID1B baculoviruses; FLAG (N); made in house; host or cells: Sf21 insect cells (baculovirus)
T1 sequence (Q9UGL1 whole entry): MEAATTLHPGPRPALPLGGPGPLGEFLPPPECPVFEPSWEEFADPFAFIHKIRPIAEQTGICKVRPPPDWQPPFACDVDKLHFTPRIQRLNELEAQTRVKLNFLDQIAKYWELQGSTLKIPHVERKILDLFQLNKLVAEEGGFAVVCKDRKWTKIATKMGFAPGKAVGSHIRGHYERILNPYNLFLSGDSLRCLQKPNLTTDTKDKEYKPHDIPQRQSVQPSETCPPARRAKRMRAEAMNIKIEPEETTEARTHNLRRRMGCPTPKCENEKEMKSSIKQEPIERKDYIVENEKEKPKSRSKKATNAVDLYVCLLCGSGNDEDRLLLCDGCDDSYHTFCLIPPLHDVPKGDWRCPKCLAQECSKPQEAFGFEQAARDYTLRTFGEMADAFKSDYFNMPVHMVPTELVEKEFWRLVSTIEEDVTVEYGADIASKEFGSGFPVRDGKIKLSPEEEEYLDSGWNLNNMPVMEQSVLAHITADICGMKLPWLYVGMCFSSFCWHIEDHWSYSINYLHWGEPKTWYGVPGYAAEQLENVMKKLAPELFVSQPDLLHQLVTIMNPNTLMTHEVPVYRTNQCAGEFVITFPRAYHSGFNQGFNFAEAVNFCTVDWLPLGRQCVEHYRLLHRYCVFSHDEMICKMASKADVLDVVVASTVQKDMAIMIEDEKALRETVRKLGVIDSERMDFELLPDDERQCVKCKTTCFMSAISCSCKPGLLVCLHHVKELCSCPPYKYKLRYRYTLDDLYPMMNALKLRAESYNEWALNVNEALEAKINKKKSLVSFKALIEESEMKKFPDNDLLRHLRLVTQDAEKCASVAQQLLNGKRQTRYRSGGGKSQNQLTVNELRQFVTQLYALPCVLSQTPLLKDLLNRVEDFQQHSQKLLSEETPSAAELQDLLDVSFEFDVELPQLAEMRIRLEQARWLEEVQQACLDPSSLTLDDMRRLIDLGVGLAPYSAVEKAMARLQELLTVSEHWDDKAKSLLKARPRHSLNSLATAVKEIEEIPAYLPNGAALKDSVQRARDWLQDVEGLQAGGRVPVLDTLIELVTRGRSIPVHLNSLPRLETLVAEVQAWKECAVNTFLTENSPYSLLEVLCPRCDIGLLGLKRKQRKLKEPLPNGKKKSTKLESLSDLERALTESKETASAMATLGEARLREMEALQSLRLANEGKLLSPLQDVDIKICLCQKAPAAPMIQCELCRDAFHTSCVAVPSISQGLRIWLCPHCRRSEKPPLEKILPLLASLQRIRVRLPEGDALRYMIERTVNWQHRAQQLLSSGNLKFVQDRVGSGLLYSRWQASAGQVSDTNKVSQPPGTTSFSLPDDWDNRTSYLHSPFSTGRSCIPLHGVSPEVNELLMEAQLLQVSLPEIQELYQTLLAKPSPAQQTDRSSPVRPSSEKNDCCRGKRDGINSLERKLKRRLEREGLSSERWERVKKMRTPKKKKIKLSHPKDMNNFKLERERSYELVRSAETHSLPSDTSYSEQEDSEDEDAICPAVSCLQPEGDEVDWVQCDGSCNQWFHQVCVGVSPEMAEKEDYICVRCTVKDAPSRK

[2] = high-throughput screen, compound 20 μM, standard demethylase conditions (10 μM α-KG, 50 μM Fe (II))

SMILES	Artifact signal: effect of the compound when it is incubated with bio-H3K4me2 peptide [1]	Validation result of HTS active: effect of the compound in the JARID1B AlphaScreen demethylase assay (JARID1B)	inhibition at 20 µM (JARID1B; [2]) [%]	Artifact Signal (percent) [1]	Assay − Artifact Signal (percent) (JARID1B) [%]	Assay Signal (percent) (JARID1B)	Inhibitory effect (percent) (JARID1B; [2]) [%]	inhibition at 20 µM (JARID1B; high-throughput screen, compound 20 μM, IDs marked *: additional hits under reaction condition with 1 mM α-KG) [%]
Cn1c(=O)n(C)c2cc(S(=O)(=O)NNc3ccccc3)ccc21 [YU153899]	0.54	8.44	–	–	–	–	–	–
CN(C)CCn1c2c(c3ccccc31)CCCn1cnnc1-2.Cl [YU153907]	−2.05	1.57	41.2	–	–	–	–	–
c1ccc(-c2nn3c(Cn4cnc5ccccc54)nnc3s2)cc1 [YU153935]	–	–	40.5	−6.99%	21.66	14.67%	–	–
c1cncc(-c2nn3c(Cn4cnc5ccccc54)nnc3s2)c1 [YU154091]	–	–	40	5.50%	24.37	29.87%	–	–
O=C(NC1CCCCC1)c1ccc(NC(=O)c2ccccc2O)cc1 [YU154737]	–	–	45	4.58%	23.65	28.23%	–	–
O=C(O)c1cc(N(Cc2ccccc2O)Cc2cc(O)ccc2O)ccc1O [YU154829, LAVENDUSTIN A, reference compound]	–	–	50.3	8.32%	30.24	38.57%	–	–
N#CC(C#N)=Cc1cc(O)c(O)c(O)c1 [YU154832, TYRPHOSTIN 25, reference compound]	–	–	53.7	5.21%	17.87	23.08%	–	–
Oc1cc(O)cc(/C=C/c2ccc(O)c(O)c2)c1 [YU154843, PICEATANNOL, reference compound]	–	–	34	−4.85%	18.12	13.28%	–	–
CN(C)CCCn1cc(C2=C(c3c[nH]c4ccccc34)C(=O)NC2=O)c2ccccc21 [YU154851, GF 109203X, reference compound]	5.46	5.76	40.7	–	–	–	–	–
Cn1cc(C2=C(c3cn(CCCSC(=N)N)c4ccccc34)C(=O)NC2=O)c2ccccc21 [YU154853, Ro 31-8220, reference compound]	38.79	41.07	44	–	–	–	–	–
O=C(O)c1cc(NCc2cc(O)ccc2O)ccc1O [YU154859, 2-HYDROXY-5-(2,5- DIHYDROXYBENZYL- AMINO)BENZOIC ACID, reference compound]	–	–	46.4	3.65%	42.61	46.26%	–	–
O=c1c(O)c(-c2ccc(O)c(O)c2)oc2cc(O)cc(O)c12 [YU154882, QUERCETIN, reference compound]	–	–	86	78.83% and 68.48%	–	100.88% and 78.65%	93.51	–
COCc1cc(O)c(O)c(O)c1-c1c(COC)cc(O)c(O)c1O [YU154887, 2,2,3,3,4,4- HEXAHYDROXY-1,1- BIPHENYL-6,6- DIMETHANOL DIMETHYL ETHER, reference compound]	–	–	103	42.41%	57.15	99.57%	–	–
Oc1ccc2c(c1)OCC1(O)Cc3cc(O)c(O)cc3C21 (centres unmarked) [YU154998, BRAZILIN, reference compound]	–	–	70.3	−0.48%	15.98	15.51%	–	–
O=c1c(O)cc([C@H]2Oc3cc(O)cc(O)c3C[C@H]2O)cc2c([C@H]3Oc4cc(O)cc(O)c4C[C@H]3O)cc(O)c(O)c12 [YU155003, THEAFLAVIN, reference compound]	–	–	60.4	47.32%	13.49	60.81%	–	–
Oc1cc2c(cc1O)C1c3ccc(O)c(O)c3OCC1(O)C2 (centres unmarked) [YU155005, HAEMATOXYLIN, reference compound]	–	–	101	34.32%	64.59	98.90%	–	–
COc1ccc(-c2coc3cc(O)ccc3c2=O)c(O)c1O [YU155016, KOPARIN, reference compound]	–	–	–	14.33%	13.76	28.09%	–	42.3
O=C1C=C2C[C@@]3(O)COc4cc(O)ccc4C3=C2C=C1O [YU155025, BRAZILEIN, reference compound]	–	–	78.8	−0.14%	9.26	9.12%	–	–
C=C[C@@H](C1=CC(=O)C(OC)=C(OC)C1=O)c1ccccc1 [YU155075, 3,4-DIMETHOXY- DALBERGIONE, reference compound]	–	–	75.9	11.14%	38.83	49.97%	–	–
Oc1cc(O)c2c(c1)O[C@H](c1cc(O)c(O)c(O)c1)[C@H](O)C2 [YU155087, EPIGALLOCATECHIN, reference compound]	–	–	55.5	24.76%	19.74	44.50%	–	–
O=C(Oc1cc(O)cc2c1C[C@@H](OC(=O)c1cc(O)c(O)c(O)c1)[C@@H](c1cc(O)c(O)c(O)c1)O2)c1cc(O)c(O)c(O)c1 [YU155091, EPIGALLOCATECHIN 3,5-DIGALLATE, reference compound]	−3.13	−0.05	92.2	–	–	–	–	–
O=C(O)c1cc(O)c(=O)c2c(O)c(O)c(O)cc2c1 [YU155193, PURPUROGALLIN-4- CARBOXYLIC ACID, reference compound]	−3.21	−1.37	97.5	–	–	–	–	–
O=c1c(O)c(-c2ccc(O)c(O)c2)oc2cc(O)ccc12 [YU155255, FISETIN, reference compound]	–	–	45.8	68.78%	22.49	91.26%	–	–
O=C1C=C2CC3(O)COc4c(ccc(O)c4O)C3=C2C=C1O (centres unmarked) [YU155257, HEMATEIN, reference compound]	99.07	104.73	105	–	–	–	–	–
O=c1cc(-c2ccccc2)oc2cc(O)c(O)c(O)c12 [YU155285, BAICALEIN, reference compound]	1.01	0.59	65.2	–	–	–	–	–
O=c1c(O)c(-c2cc(O)c(O)c(O)c2)oc2cc(O)cc(O)c12 [YU155300, MYRICETIN, reference compound]	69.07	74.84	72.1	–	–	–	–	–
O=c1cc(-c2cc(O)c(O)c(O)c2)oc2cc(O)cc(O)c12 [YU155308, HIERACIN, reference compound]	92.13	34.84	40.7	–	–	–	–	–
CC(C)(C#N)O[C@@H]1O[C@H](CO)[C@@H](O)[C@H](O)[C@H]1O [YU155312, LINAMARIN, reference compound]	–	–	60.3	−6.55%	99.23	92.68%	–	–
